Measured values published in patent publication US6737383B1, “Herbicidal oxadiazolidines” (priority 1999, dated 2004).

How the values were obtained:
bedstraw = experiment: Test B pre/postemergence bedstraw; assay type: in vivo, Galium aparine
Source text: (§1) Seeds of bedstraw (Galium aparine), blackgrass (Alopecurus myosuroides), surinam grass (Brachiaria decumbens), cocklebur (Xanthium strumarium), corn (Zea mays), crabgrass (Digitaria sanguinalis), giant foxtail (Setaria faberii), morningglory (Ipomoea hederacea), pigweed (Amaranthus retroflexus), rape (Brassica napus), soybean (Glycine max), sugar beet (Beta vulgaris), velvetleaf (Abutilon theophrasti), wheat (Triticum aestivum), wild oat (Avena fatua) and purple nutsedge (Cyperus rotundus) tubers were planted and treated preemnergence with test chemicals formulated in a non-phytotoxic solvent mixture which included a surfactant.
(§2) At the same time, these crop and weed species were also treated with postemergence applications of test chemicals formulated in the same manner. Plants ranged in height from 2 to 18 cm (1- to 4-leaf stage) for postemergence treatments. Plant species in the flood test consisted of rice (Oryza sativa), smallflower flatsedge (Cyperus difformis), duck salad (Heteranthera limosa) and bamyardgrass (Echinochloa crus-galli) grown to the 2-leaf stage for testing. Treated plants and controls were maintained in a greenhouse for twelve to sixteen days, after which all species were compared to controls and visually evaluated. Plant response ratings, summarized in Table B, are based on a scale of 0 to 10 where 0 is no effect and 10 is complete control. A dash (−) response means no test result.

blackgrass = experiment: Test B pre/postemergence blackgrass; assay type: in vivo, Alopecurus myosuroides
Source text: as §1, §2

surinam grass = experiment: Test B pre/postemergence surinam grass; assay type: in vivo, Brachiaria decumbens
Source text: as §1, §2

cocklebur = experiment: Test B pre/postemergence cocklebur; assay type: in vivo, Xanthium strumarium
Source text: as §1, §2

corn = experiment: Test B pre/postemergence corn; assay type: in vivo, Zea mays
Source text: as §1, §2

crabgrass = experiment: Test B pre/postemergence crabgrass; assay type: in vivo, Digitaria sanguinalis
Source text: as §1, §2

giant foxtail = experiment: Test B pre/postemergence giant foxtail; assay type: in vivo, Setaria faberii
Source text: as §1, §2

morningglory = experiment: Test B pre/postemergence morningglory; assay type: in vivo, Ipomoea hederacea
Source text: as §1, §2

pigweed = experiment: Test B pre/postemergence pigweed; assay type: in vivo, Amaranthus retroflexus
Source text: as §1, §2

rape = experiment: Test B pre/postemergence rape; assay type: in vivo, Brassica napus
Source text: as §1, §2

soybean = experiment: Test B pre/postemergence soybean; assay type: in vivo, Glycine max
Source text: as §1, §2

sugar beet = experiment: Test B pre/postemergence sugar beet; assay type: in vivo, Beta vulgaris
Source text: as §1, §2

velvetleaf = experiment: Test B pre/postemergence velvetleaf; assay type: in vivo, Abutilon theophrasti
Source text: as §1, §2

wheat = experiment: Test B pre/postemergence wheat; assay type: in vivo, Triticum aestivum
Source text: as §1, §2

wild oat = experiment: Test B pre/postemergence wild oat; assay type: in vivo, Avena fatua
Source text: as §1, §2

purple nutsedge = experiment: Test B pre/postemergence purple nutsedge; assay type: in vivo, Cyperus rotundus
Source text: as §1, §2

[1] = Postemergence, Rate 62 g/ha, scale 0 to 10, 0 is no effect, 10 is complete control
[2] = Postemergence, Rate 125 g/ha, scale of 0 to 10 where 0 is no effect and 10 is complete control
[3] = Postemergence, Rate 500 g/ha, scale 0 (no effect) to 10 (complete control)
[4] = Preemergence, Rate 250 g/ha, scale 0 (no effect) to 10 (complete control)
[5] = Rate 62 g/ha, Preemergence, scale 0 to 10
[6] = Rate 125 g/ha, Preemergence, scale 0 to 10 (0 no effect, 10 complete control)
[7] = Rate 250 g/ha, Postemergence, scale 0 to 10, 0 is no effect, 10 is complete control
[8] = Rate 500 g/ha, Preemergence, scale 0 to 10 (0 no effect, 10 complete control)

CCOC(CC)n1c(=O)on(C(=O)N(c2ccccc2)C(C)C)c1=O (stereo not drawn) [Compound 773]
0: Plant response rating, Bedstraw (bedstraw; [1]) | Bedstraw plant response rating (bedstraw; [2]) | Bedstraw plant response rating (bedstraw; [3]) | Bedstraw plant response rating (bedstraw; [4]) | Bedstraw plant response rating (bedstraw; [5]) | Bedstraw plant response rating (bedstraw; [6]) | Bedstraw plant response rating (bedstraw; [7]) | Bedstraw plant response rating (bedstraw; [8]) | Plant response rating, Blackgrass (blackgrass; [1]) | Blackgrass plant response rating (blackgrass; [2]) | Blackgrass plant response rating (blackgrass; [3]) | Blackgrass plant response rating (blackgrass; [4]) | Blackgrass plant response rating (blackgrass; [5]) | Blackgrass plant response rating (blackgrass; [6]) | Blackgrass plant response rating (blackgrass; [7]) | Blackgrass plant response rating (blackgrass; [8]) | Plant response rating, B. signalgrass (surinam grass; [1]) | B. signalgrass plant response rating (surinam grass; [2]) | B. signalgrass plant response rating (surinam grass; [4]) | B. signalgrass plant response rating (surinam grass; Rate 62 g/ha, Preemergence, scale 0 (no effect) to 10 (complete control)) | B. signalgrass plant response rating (surinam grass; [6]) | B. signalgrass plant response rating (surinam grass; [7]) | B. signalgrass plant response rating (surinam grass; Rate 500 g/ha, Postemergence, scale 0 to 10, 0 is no effect, 10 is complete control) | B. signalgrass plant response rating (surinam grass; [8]) | Plant response rating, Cocklebur (cocklebur; [1]) | Cocklebur plant response rating (cocklebur; [2]) | Cocklebur plant response rating (cocklebur; [3]) | Cocklebur plant response rating (cocklebur; [4]) | Cocklebur plant response rating (cocklebur; [5]) | Cocklebur plant response rating (cocklebur; [6]) | Cocklebur plant response rating (cocklebur; [7]) | Cocklebur plant response rating (cocklebur; [8]) | Plant response rating, Corn (corn; [1]) | Corn plant response rating (corn; [2]) | Corn plant response rating (corn; [3]) | Corn plant response rating (corn; [4]) | Corn plant response rating (corn; [5]) | Corn plant response rating (corn; [6]) | Corn plant response rating (corn; [7]) | Corn plant response rating (corn; [8]) | Plant response rating, Crabgrass (crabgrass; [1]) | Crabgrass plant response rating (crabgrass; [2]) | Crabgrass plant response rating (crabgrass; [3]) | Crabgrass plant response rating (crabgrass; [4]) | Crabgrass plant response rating (crabgrass; [5]) | Crabgrass plant response rating (crabgrass; [6]) | Crabgrass plant response rating (crabgrass; [7]) | Crabgrass plant response rating (crabgrass; [8]) | Plant response rating, Giant foxtail (giant foxtail; [1]) | Giant foxtail plant response rating (giant foxtail; [2]) | Giant foxtail plant response rating (giant foxtail; [3]) | Giant foxtail plant response rating (giant foxtail; [4]) | Giant foxtail plant response rating (giant foxtail; [5]) | Giant foxtail plant response rating (giant foxtail; [6]) | Giant foxtail plant response rating (giant foxtail; [7]) | Giant foxtail plant response rating (giant foxtail; [8]) | Plant response rating, Morningglory (morningglory; [1]) | Morningglory plant response rating (morningglory; [2]) | Morningglory plant response rating (morningglory; [3]) | Morningglory plant response rating (morningglory; [5]) | Morningglory plant response rating (morningglory; [6]) | Morningglory plant response rating (morningglory; [7]) | Morningglory plant response rating (morningglory; [8]) | Plant response rating, Redroot pigweed (pigweed; [1]) | Redroot pigweed plant response rating (pigweed; [2]) | Redroot pigweed plant response rating (pigweed; [3]) | Redroot pigweed plant response rating (pigweed; [5]) | Redroot pigweed plant response rating (pigweed; [6]) | Redroot pigweed plant response rating (pigweed; [7]) | Redroot pigweed plant response rating (pigweed; [8]) | Plant response rating, Rape (rape; [1]) | Rape plant response rating (rape; [2]) | Rape plant response rating (rape; [3]) | Rape plant response rating (rape; [5]) | Rape plant response rating (rape; [6]) | Rape plant response rating (rape; [7]) | Rape plant response rating (rape; [8]) | Plant response rating, Soybean (soybean; [1]) | Soybean plant response rating (soybean; [3]) | Soybean plant response rating (soybean; [5]) | Soybean plant response rating (soybean; [6]) | Soybean plant response rating (soybean; [7]) | Soybean plant response rating (soybean; [8]) | Plant response rating, Sugarbeets (sugar beet; [1]) | Sugarbeets plant response rating (sugar beet; [3]) | Sugarbeets plant response rating (sugar beet; [5]) | Sugarbeets plant response rating (sugar beet; [6]) | Sugarbeets plant response rating (sugar beet; [7]) | Sugarbeets plant response rating (sugar beet; [8]) | Plant response rating, Velvetleaf (velvetleaf; [1]) | Velvetleaf plant response rating (velvetleaf; [3]) | Velvetleaf plant response rating (velvetleaf; [5]) | Velvetleaf plant response rating (velvetleaf; [6]) | Velvetleaf plant response rating (velvetleaf; [7]) | Velvetleaf plant response rating (velvetleaf; [8]) | Plant response rating, Wheat (wheat; [1]) | Wheat plant response rating (wheat; [3]) | Wheat plant response rating (wheat; [5]) | Wheat plant response rating (wheat; [6]) | Wheat plant response rating (wheat; [7]) | Wheat plant response rating (wheat; [8]) | Plant response rating, Wild oats (wild oat; [1]) | Wild oats plant response rating (wild oat; [3]) | Wild oats plant response rating (wild oat; [5]) | Wild oats plant response rating (wild oat; [6]) | Wild oats plant response rating (wild oat; [7]) | Wild oats plant response rating (wild oat; [8]) | Plant response rating, Nutsedge (purple nutsedge; [1]) | Nutsedge plant response rating (purple nutsedge; [2]) | Nutsedge plant response rating (purple nutsedge; [3]) | Nutsedge plant response rating (purple nutsedge; [5]) | Nutsedge plant response rating (purple nutsedge; [6]) | Nutsedge plant response rating (purple nutsedge; [7]) | Nutsedge plant response rating (purple nutsedge; [8])
